Experimental data taken from patent US6803385B2, “Hydroxyeicosatetraenoic acid analogs and methods of their use in treating dry eye disorders” (Alcon, Inc., priority 1999, dated 2004).

Tested on: rabbit model of dry eye (corneal staining)
Assay: Inhibition of corneal staining in a rabbit model of dry eye (ConA lacrimal gland inflammation plus desiccation, methylene blue uptake)
Type: in vivo, New Zealand white rabbits
Conditions: 1 μM, topical QID 50 μl, methylene blue corneal staining (A660) vs BSS vehicle
Experimental: Compounds 173 and 175 were evaluated for their ability to inhibit corneal staining in a rabbit model of dry eye, as per the following experimental protocol.
New Zealand white (NZA) rabbits (approximately 2.5 kg) were obtained from Myrtle's Rabbitry (Thompson Station, Tenn.). Animals were maintained in a controlled environment with a 12-hour on/off light cycle at 65±5° F. and at least 30% humidity. All aspects of animal handling, housing and experimentation conformed to the ARVO Statement for the Use of Animals in Ophthalmic and Vision Research.
Rabbits were randomized and dosed topically QID with 50 μl of test article or BSS® solution beginning 24 hours prior to lacrimal gland injection. […]
Desiccation was initiated three days following ConA injection by placing conscious rabbits into an environmental chamber (20%-30% humidity/75° F.). […] The concentration of the extracted dye was determined spectrophotometrically by measuring its absorbance at λ=660 nanometers (A660). Data are expressed as mean±standard deviation (S.D.). Percent inhibition was calculated as {1−[(A660test item−A660Normal)/(A660BSS−A660Normal)]}×100, where A660test item is the absorbance of dye from ConA-injected eyes dosed with the test item, A660Normal is the absorbance of dye from saline-injected eyes, and A660BSS is the absorbance of dye in ConA-injected eyes dosed with BSS® solution vehicle.

**Q.** How did the “% Inhibition ± S.D.” value (Experiment 1) turn out when `CCCCC[C@H](O)/C=C/C=C\C/C=C\C/C=C\CCCC(=O)O` [Compound 15S-HETE, (15S)-(5Z,8Z,11Z,13E)-15-hydroxy-eicosa-5,8,11,13-tetraenoic acid] was run?
**A.** 70 ± 18%

**Q.** And the “% Inhibition ± S.D.” value (Experiment 2)?
**A.** 77% ± 18%
